Assay results: patent US12109197B2, “Combinations of β-lactam compounds and probenecid and uses thereof” (Iterum Therapeutics International Limited, priority 2018, dated 2024)
Values joined by “and” are separate entries in the source; they are usually repeats but may differ in a detail not shown here. Equal entries are not always repeated. Where two headings read alike, the source gives them in different places.

Legend:
[1] = format: in vivo, human; settings: for Tlast / Tmax: median; for TAMIC1: minimum concentration 0.5 μg/mL; for TAMIC2: minimum concentration 1.0 μg/mL
Description: A Phase 1, randomized, investigator-blind, subject-blind, sponsor-open, placebo-controlled, single and multiple dose study of Compound II-2b was further conducted. There were 6 planned cohorts of subjects. Each cohort was planned to enroll 12 subjects, for a total of 72 planned subjects. Subjects in the multidose cohort were dosed for 10 days; new subjects were recruited for each cohort. Subjects in these cohorts, on Days 1 through 9, were dosed BTD (12 hours apart) at approximately 0800 and 2000 hours. On Day 10, subjects were to be dosed only once at approximately 0800 hours.

[2] = format: in vivo, human; settings: for TAMIC0.5 / TAMIC1.0 / Tmax: median; for Ae24%: percent of administered dose, adjusted for MW; for CLr: renal clearance; for Ae24: urine over 24 hours postdose
Description: The pharmacokinetics of Compound III-2b wer studies in a randomized, subject-blinded, investigator- and sponsor-open, placebo-controlled, multiple-dose study, run in parallel cohorts. There were 7 cohorts of approximately 10 subjects each (4:1 active:placebo).

[3] = for Cmax / TAMIC0.5 / TAMIC1.0 / Tmax / AUCtau / AUCinf / AUClast / t1/2: plasma; for Tmax: median (minimum-maximum); for AUCtau: time 0 to 12 hours
Description: Subjects were to be dosed twice a day (every 12 hours) for 6 days and on Day 7 they were to be dosed once. All treatment groups could be run in parallel or sequentially. Subjects were allocated based on the randomization list. Randomization numbers were assigned sequentially as subjects entered into groups on the basis of their order of entry into the study. Subjects who withdrew for reasons unrelated to safety may have been replaced. Blood samples were obtained at prespecified intervals in order to characterize pharmacokinetics.

[4] = 2000 mg BID, Study Day 1, plasma
[5] = 2000 mg BID, Study Day 10, plasma
[6] = Cohort 2: 1 g BID, fasted, Day 1
[7] = Cohort 2: 1 g BID, fasted, Day 7
[8] = Cohort 3: 1.5 g BID, fed, Day 1
[9] = Cohort 3: 1.5 g BID, fed, Day 7
[10] = Cohort 4: 0.5 g BID, fasted, Day 1
[11] = Cohort 4: 0.5 g BID, fasted, Day 7

## CCC(CC)C(=O)OCOC(=O)C1=C(S[C@H]2CC[S@@+]([O-])C2)S[C@@H]2[C@@H]([C@@H](C)O)C(=O)N12 [Compound III-2b, Sulopenem Etzadroxil]
[1]; [4]
  AUCinf: 18100 ng·h/mL
  AUCtau: 17500 ng·h/mL
  Cmax: 6090 ng/mL
  t1/2: 1.66 h
  Tlast: 8.00 h
  Tmax: 1.00 h
  TAMIC1: 6.93
  TAMIC2: 5.57
[1]; 2000 mg BID, Study Day 6, urine, percent of sulopenem dose excreted
  Ae %: 17.3 (26) %
[1]; 2000 mg BID, Study Day 6, urine, sulopenem excreted unchanged over 24 hours
  Ae24: 253000 (26) ug
[1]; 2000 mg BID, Study Day 10, accumulation ratio
  Rac: 0.685
[1]; [5]
  AUCtau: 12200 ng·h/mL
  Cmax: 5480 ng/mL
  Ctrough: 0.00 ng/mL
  t1/2: 1.27 h
  Tlast: 8.00 h
  Tmax: 1.00 h
  TAMIC1: 4.70
  TAMIC2: 3.61
[1]; 2000 mg, Day 1
  AUCtau: 17500 ng·h/mL
[1]; 2000 mg, Day 10
  AUCtau: 12200 ng·h/mL
[2]; 500 mg FED, Day 1
  AUCinf: 3400 ng·h/mL
[2]; 500 mg FED, Day 7
  AUCinf: 2990 ng·h/mL
[2]; 1000 mg FED, Day 1
  AUCinf: 9430 ng·h/mL
[2]; 1000 mg FED, Day 7
  AUCinf: 7800 ng·h/mL
[2]; 1000 mg TID FED, Day 1
  AUCinf: 8290 ng·h/mL
[2]; 1000 mg TID FED, Day 7
  AUCinf: 6750 ng·h/mL
[2]; 1000 mg, Day 1
  AUCinf: 6680 ng·h/mL
[2]; 1000 mg, Day 7
  AUCinf: 6020 ng·h/mL
[2]; 1500 mg, Day 1
  AUCinf: 12900 ng·h/mL
[2]; 1500 mg, Day 7
  AUCinf: 9950 ng·h/mL
[2]; Cohort 1: 1 g BID, fed, Day 1
  AUCinf: 9430 (13) ng · h/mL
  AUClast: 9330 (13) ng · h/mL
  Cmax: 4420 (24) ng/mL
  t½: 0.823 (13) h
  TAMIC0.5: 4.35 h
  TAMIC1.0: 3.21 h
  Tmax: 1.50 h
[2]; Cohort 1: 1 g BID, fed, Day 7
  AUCinf: 7800 (17) ng · h/mL
  AUClast: 7670 (17) ng · h/mL
  Cmax: 3770 (23) ng/mL
  t½: 0.761 (11) h
  TAMIC0.5: 3.32 h
  TAMIC1.0: 2.64 h
  Tmax: 2.00 h
  Ae24%: 19.0 (27) %
  CLr: 17.4 (19) L/h
  Ae24: 138.7 (27) mg
[2]; Cohort 1: 1 g BID, fed, Day 7, accumulation ratio
  Rac: 0.832 (13)
[2]; [6]
  AUCinf: 6680 (20) ng · h/mL
  AUClast: 6770 (22) ng · h/mL
  Cmax: 2760 (13) ng/mL
  t½: 1.37 (33) h
  TAMIC0.5: 3.69 h
  TAMIC1.0: 2.91 h
  Tmax: 1.50 h
[2]; [7]
  AUCinf: 6020 (16) ng · h/mL
  AUClast: 6070 (19) ng · h/mL
  Cmax: 2410 (33) ng/mL
  t½: 1.08 (24) h
  TAMIC0.5: 4.18 h
  TAMIC1.0: 2.72 h
  Tmax: 1.75 h
  Ae24%: 10.2 (23) %
  CLr: 12.2 (30) L/h
  Ae24: 74.4 (23) mg
[2]; Cohort 2: 1 g BID, fasted, Day 7, accumulation ratio
  Rac: 0.910 (11)
[2]; [8]
  AUCinf: 12900 (23) ng · h/mL
  AUClast: 12100 (21) ng · h/mL
  Cmax: 3700 (42) ng/mL
  t½: 1.20 (14) h
  TAMIC0.5: 6.34 h
  TAMIC1.0: 4.81 h
  Tmax: 2.50 h
[2]; [9]
  AUCinf: 9950 (15) ng · h/mL
  AUClast: 9710 (15) ng · h/mL
  Cmax: 2670 (28) ng/mL
  t½: 0.901 (14) h
  TAMIC0.5: 5.96 h
  TAMIC1.0: 4.44 h
  Tmax: 2.51 h
[2]; Cohort 3: 1.5 g BID, fed, Day 7, accumulation ratio
  Rac: 0.809 (14)
[2]; [10]
  AUCinf: 3400 (20) ng · h/mL
  AUClast: 3260 (22) ng · h/mL
  Cmax: 1470 (34) ng/mL
  t½: 0.862 (19) h
  TAMIC0.5: 2.66 h
  TAMIC1.0: 1.38 h
  Tmax: 1.03 h
[2]; [11]
  AUCinf: 2990 (23) ng · h/mL
  AUClast: 2730 (27) ng · h/mL
  Cmax: 1310 (22) ng/mL
  t½: 0.797 (16) h
  TAMIC0.5: 2.38 h
  TAMIC1.0: 0.803 h
  Tmax: 1.50 h
[2]; Cohort 4: 0.5 g BID, fasted, Day 7, accumulation ratio
  Rac: 0.873 (29)
[2]; Cohort 7: 1 g TID, fed, Day 1
  AUCinf: 8290 (6) ng · h/mL
  AUClast: 7670 (13) ng · h/mL
  Cmax: 3320 (36) ng/mL
  t½: 1.26 (40) h
  TAMIC0.5: 4.90 h
  TAMIC1.0: 3.32 h
  Tmax: 1.75 h
[2]; Cohort 7: 1 g TID, fed, Day 7
  AUCinf: 6750 (11) ng · h/mL
  AUClast: 6230 (16) ng · h/mL
  Cmax: 2090 (28) ng/mL
  t½: 0.790 (2) h
  TAMIC0.5: 4.62 h
  TAMIC1.0: 3.22 h
  Tmax: 4.00 h
[2]; Cohort 7: 1 g TID, fed, Day 7, accumulation ratio
  Rac: 0.827 (21)
[2]; in vivo
  Rac: 1.10 (24)
[3]; Day 7, With Probenecid
  AUCtau, GM: 5325.20 ng·h/mL
  Cmax, GM: 1532.10 ng/mL
[3]; Day 7, Without Probenecid
  AUCtau, GM: 3084.36 ng·h/mL
  Cmax, GM: 1233.18 ng/mL
[3]; administered alone through the oral route
  AUC of sulopenem on Day 7 compared with Day 1: lower than that on Day 1
[3]; co-administered with probenecid
  AUC of sulopenem on Day 7 compared with Day 1: increased on Day 7 beyond that seen on Day 1
[3]; fasted, Day 1
  Cmax: 1699.1 (31.64) ng/mL
  TAMIC0.5: 2.6348 (14.85) h
  TAMIC1.0: 1.0758 (94.61) h
  Tmax: 1.0000 (0.4830-2.017) h
  AUCtau: 3623.8 (19.19) hr*ng/mL and 3623.8 hr*ng/mL
[3]; fasted, Day 7
  AUCinf: 2627.8 (18.89) hr*ng/mL
  AUClast: 2607.4 (19.10) hr*ng/mL
  Cmax: 1289.4 (39.17) ng/mL
  TAMIC0.5: 2.1088 (16.74) h
  TAMIC1.0: 0.732 (62.70) h
  t1/2: 0.9376 (15.34) h
  Tmax: 0.9915 (0.5000-1.033) h
  AUCtau: 2626.3 (18.89) hr*ng/mL and 2626.3 hr*ng/mL
[3]; fed, Day 1
  Cmax: 1730.9 (46.66) ng/mL
  TAMIC0.5: 3.0103 (31.13) h
  TAMIC1.0: 2.0882 (25.12) h
  Tmax: 1.000 (1.5000-2.983) h
  AUCtau: 4413.7 (27.00) hr*ng/mL
[3]; fed, Day 7
  AUCinf: 3712.7 (24.27) hr*ng/mL
  AUClast: 3537 (25.01) hr*ng/mL
  Cmax: 1179.4 (25.94) ng/mL
  TAMIC0.5: 2.8507 (31.48) h
  TAMIC1.0: 1.3191 (62.54) h
  t1/2: 0.9114 (26.68) h
  Tmax: 1.483 (2.0000-4.000) h
  AUCtau: 3706.4 (24.21) hr*ng/mL
